Measured values from patent US12404304B1, “Telomerase reverse transcriptase (TERT) expression enhancing compounds and methods for using the same” (Sierra Sciences, LLC, priority 2007, dated 2025).

Tests used:
[1] = test system: human TERT expression (hTERT mRNA); experiment: Quantitative real-time RT-PCR of hTERT mRNA expression (Ct, transcripts) in compound-treated cells; assay type: cell-based; settings: quantitative real-time RT-PCR
Outline: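 Read-out is cycle threshold, the cycle at which probe fluorescence released by Taq 5′-nuclease activity crosses a set level; Ct falls as hTERT mRNA rises. cDNA of treated and untreated cells was compared, with starting transcripts quantified against a known-cDNA standard curve.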

viable cells in culture = experiment: Cell viability assay (CellTiter-Glo Luminescent Cell Viability Assay, ATP quantitation, percent of vehicle control)

Compound | Average Number of hTERT Transcripts [1] | Average Cell Viability after 24 Hours (% DMSO) (viable cells in culture)
CCc1ccc(NC2c3ccccc3C(=O)N2Cc2ccc3c(c2)OCO3)cc1 (stereo not shown) [compound 1326] | 8.73 | 86.99
Cc1cc(Br)ccc1NC(=O)Cn1ncc2c(=O)oc3ccccc3c21 [compound 1327] | 4.67 | 101.34
COc1ccc(Br)cc1CNC(=O)Cn1ncc2c(=O)oc3ccccc3c21 [compound 1328] | 5.42 | 71.81
CC1(C(=O)O)CC(=O)N=C2C=CC(Cl)=CN21 (stereo not shown) [compound 1329] | 3.63 | 94.31
COc1cc(C(=O)Nc2ccc(-c3nc4ccccc4[nH]3)cc2)ccc1OC(C)=O [compound 1330] | 3.59 | 97.84
COC(=O)CSc1nnc(-c2sc3ccccc3c2Cl)n1C [compound 1331] | 32.92 | 90.44
C=CCc1c(C)nc(SCC(=O)Nc2cc(Cl)cc(Cl)c2)[nH]c1=O [compound 1332] | 12.68 | 94.78
Cc1ccc(-c2noc(CN3CCOCC3)n2)cc1 [compound 1333] | 3.71 | 96.79
O=C(Nc1cc([N+](=O)[O-])ccc1O)c1cccc(F)c1 [compound 1334] | 31.04 | 75.50
O=[N+]([O-])c1ccc(NS(=O)(=O)c2cccc(C(F)(F)F)c2)cc1 [compound 1335] | 11.78 | 75.24
CC(=O)N1C(=O)C(=O)c2cc(Cl)ccc21 [compound 1336] | 7.64 | 100.05
CCOC(=O)COc1ccc2c(=O)c(-c3ccccc3Cl)c(C)oc2c1C [compound 1337] | 30.15 | 67.33
Cc1ccc(NC(=O)c2cc([N+](=O)[O-])ccc2O)cc1 [compound 1338] | 49.42 | 80.45
O=C(NC(=S)Nc1cc(Cl)cc(Cl)c1)c1cccc(F)c1 [compound 1339] | 7.09 | 68.94
CCC(C)Cn1c(CO)nc2ccccc21 (stereo not shown) [compound 1340] | 4.37 | 106.88
Cc1ccc(N)cc1S(=O)(=O)N1CCCCC1 [compound 1341] | 4.50 | 110.20
CCOC(=O)c1cc(NC(=O)N(C(C)C)C(C)C)c(C)nc1C [compound 1342] | 4.48 | 103.16
O=C(CSc1ncccc1C(=O)O)Nc1ccc(Oc2ccccc2)cc1 [compound 1343] | 4.57 | 103.75
S=C(Nc1ccc(Br)cc1)Nc1cccc(Cl)c1 [compound 1344] | 7.86 | 42.95
S=C(Nc1cccc(Cl)c1)Nc1cc(Cl)ccc1Cl [compound 1345] | 24.88 | 45.42
COC(=O)COc1ccc(NC(=O)CSc2ccc(Cl)cc2)cc1 [compound 1346] | 31.23 | 56.33
CC(C)CN1CC23C=CC(O2)C(C(=O)OCc2ccccc2)C3C1=O (stereo not shown) [compound 1347] | 12.01 | 118.20
CCOC(=O)CSc1nc(C)c(CC)c(C)c1C(N)=O [compound 1348] | 5.97 | 106.19
